In patent US20260325533A1, “CDK INHIBITOR COMPOUNDS” (ALEKSIA THERAPEUTICS, INC., priority 2023, published 2026):
Where two headings read alike, the source gives them in different places. Values belong to the compound of their own block, whether it stands above or below them.

Assays:
Format in all cases: biochemical
CDK6/CCND1 = CDK6/CCND1 (Homo sapiens, UniProt Q00534); experiment: CDK6 homogeneous time-resolved fluorescence (HTRF) kinase assay; conditions: CDK6/CCND
Summary of the method: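 Recombinant CDK6/CCND1 (1 nM final) was preincubated with compound for 20 min at 23 °C in HEPES buffer with MgCl2, EGTA, DTT and Tween 20. Kinase reaction then ran 60 min at 23 °C with 1 mM ATP and 50 nM ULight-4E-BP1 (Thr37/46) peptide, and was stopped with EDTA.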

CDK2/CCNE1 = CDK2/CCNE1 (Homo sapiens, UniProt P24941); experiment: CDK2 homogeneous time-resolved fluorescence (HTRF) kinase assay; conditions: CDK2/CCNE
Summary of the method: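 An HTRF format measures CDK2/CCNE1 (3 nM) phosphorylating a 4E-BP1 Thr37/46 peptide at high (1 mM) ATP. Reactions run one hour at 23 °C, then EDTA-quenched and probed with Eu-labelled phospho-specific antibody.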

CDK1/CCNB1 = CDK1/CCNB1 (Homo sapiens, UniProt P06493); experiment: CDK1 homogeneous time-resolved fluorescence (HTRF) kinase assay; conditions: CDK1/CCNB
Chain of CDK1/CCNB1 (P06493 whole entry): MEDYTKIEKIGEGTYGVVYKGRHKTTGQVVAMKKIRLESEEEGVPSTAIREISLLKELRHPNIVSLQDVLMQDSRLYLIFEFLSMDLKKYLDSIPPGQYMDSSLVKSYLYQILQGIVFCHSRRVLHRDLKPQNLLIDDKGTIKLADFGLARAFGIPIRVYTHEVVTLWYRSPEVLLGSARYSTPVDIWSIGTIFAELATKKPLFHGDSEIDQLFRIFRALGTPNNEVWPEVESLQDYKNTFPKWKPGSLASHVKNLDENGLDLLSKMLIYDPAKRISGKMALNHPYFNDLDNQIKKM
Chain of CDK1/CCNB1 (P14635 whole entry partner): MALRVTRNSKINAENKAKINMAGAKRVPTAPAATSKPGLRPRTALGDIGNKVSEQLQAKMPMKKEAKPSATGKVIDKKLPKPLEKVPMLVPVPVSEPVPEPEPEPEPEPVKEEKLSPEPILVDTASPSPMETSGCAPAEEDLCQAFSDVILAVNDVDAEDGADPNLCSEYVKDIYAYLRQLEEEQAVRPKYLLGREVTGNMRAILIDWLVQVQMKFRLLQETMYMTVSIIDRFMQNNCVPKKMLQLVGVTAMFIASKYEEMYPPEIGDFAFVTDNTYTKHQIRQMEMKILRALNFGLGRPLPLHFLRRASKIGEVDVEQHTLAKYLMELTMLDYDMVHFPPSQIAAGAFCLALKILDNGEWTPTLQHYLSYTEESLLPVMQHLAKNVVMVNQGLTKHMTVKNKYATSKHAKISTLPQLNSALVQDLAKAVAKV
Summary of the method: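 Read-out: TR-FRET (Eu anti-phospho-4E-BP1 Thr37/46 antibody, 2 nM; 665 nm or 665/615 ratio) after 60 min phosphorylation of 50 nM ULight-peptide by 0.5 nM CDK1/CCNB1 at 1 mM ATP, 23 °C. Compound preincubated 20 min with enzyme; 1% DMSO.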

CDK4/CCND3 = CDK4/CCND3 (Homo sapiens, UniProt P11802); experiment: CDK4 homogeneous time-resolved fluorescence (HTRF) kinase assay; conditions: CDK4/CCND
Chain of CDK4/CCND3 (P11802 whole entry): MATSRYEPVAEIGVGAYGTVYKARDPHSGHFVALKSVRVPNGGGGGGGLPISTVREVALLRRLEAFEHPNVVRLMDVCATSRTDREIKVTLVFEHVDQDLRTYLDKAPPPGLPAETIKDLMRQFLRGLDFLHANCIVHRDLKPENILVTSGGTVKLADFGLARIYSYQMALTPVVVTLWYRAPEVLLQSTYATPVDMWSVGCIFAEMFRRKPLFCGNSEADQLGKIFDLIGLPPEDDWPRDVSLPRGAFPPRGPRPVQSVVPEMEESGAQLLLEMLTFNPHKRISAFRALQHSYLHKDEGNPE
Chain of CDK4/CCND3 (P30281 whole entry partner): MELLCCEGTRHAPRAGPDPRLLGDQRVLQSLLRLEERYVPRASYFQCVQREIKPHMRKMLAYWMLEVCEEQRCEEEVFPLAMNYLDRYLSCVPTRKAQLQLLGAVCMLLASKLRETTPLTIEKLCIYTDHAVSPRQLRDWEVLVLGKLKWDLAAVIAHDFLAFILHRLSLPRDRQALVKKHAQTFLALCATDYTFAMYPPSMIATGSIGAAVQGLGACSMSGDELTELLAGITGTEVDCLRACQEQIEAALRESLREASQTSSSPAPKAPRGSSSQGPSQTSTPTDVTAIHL
Summary of the method: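 IC50 values were derived from 11-point half-log dilutions, usually starting at 10 μM. Compound was first held for 20 min at 23 °C with 1.5 nM CDK4/CCND3. 1 mM ATP and 50 nM ULight-eIF4E-BP1 (Thr37/46) substrate were then added for 60 min, and the TR-FRET 665 nm signal was measured after EDTA stop and Eu-anti-phospho-4E-BP1 detection.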

[1] = x = IC50 >250 nM, read-out: CDK6/CCND IC50 (>250 nM column)
[2] = x = IC50 25-250 nM, read-out: CDK2/CCNE IC50 (25-250 nM)
[3] = x = IC50 >250 nM, read-out: CDK1/CCNB IC50 (>250 nM column)
[4] = x = IC50 >250 nM, read-out: CDK4/CCND IC50 (>250 nM column)
[5] = x = IC50 25-250 nM, read-out: CDK6/CCND IC50 (25-250 nM)
[6] = x = IC50 <25 nM, read-out: CDK2/CCNE IC50 (<25 nM)
[7] = x = IC50 25-250 nM, read-out: CDK1/CCNB IC50 (25-250 nM)
[8] = x = IC50 25-250 nM, read-out: CDK4/CCND IC50 (25-250 nM)
[9] = >250 nM, 1 mM ATP, read-out: CDK6/CCND IC50, >250 nM
[10] = 25-250 nM, read-out: CDK2/CCNE IC50, 25-250 nM
[11] = >250 nM, read-out: CDK1/CCNB IC50 >250 nM
[12] = >250 nM, read-out: CDK4/CCND IC50, >250 nM
[13] = 25-250 nM, 1 mM ATP, read-out: CDK6/CCND IC50, 25-250 nM
[14] = <25 nM, read-out: CDK2/CCNE IC50, <25 nM
[15] = 25-250 nM, read-out: CDK4/CCND IC50, 25-250 nM

Chain of CDK6/CCND1 (Q00534 whole entry): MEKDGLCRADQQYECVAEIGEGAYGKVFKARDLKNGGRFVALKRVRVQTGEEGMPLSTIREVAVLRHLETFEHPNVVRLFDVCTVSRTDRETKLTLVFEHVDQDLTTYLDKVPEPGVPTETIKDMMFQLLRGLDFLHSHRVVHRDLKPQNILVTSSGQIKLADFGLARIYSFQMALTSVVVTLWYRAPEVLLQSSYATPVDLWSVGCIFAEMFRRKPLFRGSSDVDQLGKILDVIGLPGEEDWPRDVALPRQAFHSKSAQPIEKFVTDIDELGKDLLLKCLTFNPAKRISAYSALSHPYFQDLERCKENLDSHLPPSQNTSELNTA
Chain of CDK6/CCND1 (P24385 whole entry partner): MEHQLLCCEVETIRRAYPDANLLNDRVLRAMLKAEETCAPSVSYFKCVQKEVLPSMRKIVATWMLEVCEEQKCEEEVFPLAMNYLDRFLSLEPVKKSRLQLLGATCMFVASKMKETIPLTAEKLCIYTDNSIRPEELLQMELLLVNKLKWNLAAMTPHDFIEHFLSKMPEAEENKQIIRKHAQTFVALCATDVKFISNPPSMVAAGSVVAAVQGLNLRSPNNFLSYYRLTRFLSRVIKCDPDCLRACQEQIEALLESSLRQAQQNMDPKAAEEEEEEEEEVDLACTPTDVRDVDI

- IC50 (CDK6/CCND1; [1]): > 250 nM
- IC50 (CDK2/CCNE1; [2]): 25 to 250 nM
- IC50 (CDK1/CCNB1; [3]): > 250 nM
- IC50 (CDK4/CCND3; [4]): > 250 nM
Compound: CN1Cc2cc(-c3nccc4cnc(Nc5ccc(S(C)(=O)=O)cc5)cc34)ccc2C1=O [Ex 624, 2-methyl-5-(7-((4-(methylsulfonyl)phenyl)amino)-2,6-naphthyridin-1-yl)isoindolin-1-one]

- IC50 (CDK6/CCND1; >250 nM marked x, read-out: CDK6/CCND IC50 >250 nM): > 250 nM
- IC50 (CDK2/CCNE1; >250 nM marked x, read-out: CDK2/CCNE IC50 >250 nM): > 250 nM
- IC50 (CDK1/CCNB1; >250 nM marked x, read-out: CDK1/CCNB IC50 >250 nM): > 250 nM
- IC50 (CDK4/CCND3; >250 nM marked x, read-out: CDK4/CCND IC50 >250 nM): > 250 nM
Compound: CN(C)C(=O)[C@H]1CC[C@H](c2nccc3cnc(Nc4ccc(S(C)(=O)=O)cc4)cc32)CC1 [Ex 225, (1r,4r)-N,N-dimethyl-4-(7-((4-(methylsulfonyl)phenyl)amino)-2,6-naphthyridin-1-yl)cyclohexane-1-carboxamide]

- IC50 (CDK6/CCND1; [1]): > 250 nM
- IC50 (CDK2/CCNE1; x = IC50 >250 nM, read-out: CDK2/CCNE IC50 (>250 nM column)): > 250 nM
- IC50 (CDK1/CCNB1; [3]): > 250 nM
- IC50 (CDK4/CCND3; [4]): > 250 nM
Compound: COc1ccc(C#Cc2nccc3cnc(Nc4ccc(S(C)(=O)=O)cc4)cc23)nn1 [Ex 514, 5-((6-methoxypyridazin-3-yl)ethynyl)-N-(4-(methylsulfonyl)phenyl)-2,6-naphthyridin-3-amine]

- IC50 (CDK6/CCND1; [5]): 25 to 250 nM
- IC50 (CDK2/CCNE1; [6]): < 25 nM
- IC50 (CDK1/CCNB1; [7]): 25 to 250 nM
- IC50 (CDK4/CCND3; [8]): 25 to 250 nM
Compound: Nc1ncccc1C#Cc1nccc2cnc(Nc3ccc(S(=O)(=O)NC4CCNCC4)cc3)cc12 [Ex 433, 4-((5-((2-aminopyridin-3-yl)ethynyl)-2,6-naphthyridin-3-yl)amino)-N-(piperidin-4-yl)benzenesulfonamide]

- IC50 (CDK6/CCND1; [9]): > 250 nM
- IC50 (CDK2/CCNE1; [10]): 25 to 250 nM
- IC50 (CDK1/CCNB1; [11]): > 250 nM
- IC50 (CDK4/CCND3; [12]): > 250 nM
Compound: Cc1c(-c2nccc3cnc(NC4CCCN(S(C)(=O)=O)C4)cc23)ccc2c1cnn2CC(C)(C)O (racemic) [Ex 918, 2-methyl-1-(4-methyl-5-(7-((1-(methylsulfonyl)piperidin-3-yl)amino)-2,6-naphthyridin-1-yl)-1H-indazol-1-yl)propan-2-ol]

- IC50 (CDK6/CCND1; [13]): 25 to 250 nM
- IC50 (CDK2/CCNE1; [14]): < 25 nM
- IC50 (CDK1/CCNB1; [11]): > 250 nM
- IC50 (CDK4/CCND3; [15]): 25 to 250 nM
Compound: Cc1c(-c2nccc3cnc(Nc4ccc(S(=O)(=O)NC5CCNCC5)cc4)cc23)ccc2c1cnn2CC(C)(C)O [Ex 764, 4-((5-(1-(2-hydroxy-2-methylpropyl)-4-methyl-1H-indazol-5-yl)-2,6-naphthyridin-3-yl)amino)-N-(piperidin-4-yl)benzenesulfonamide]

- IC50 (CDK6/CCND1; [13]): 25 to 250 nM
- IC50 (CDK2/CCNE1; [14]): < 25 nM
- IC50 (CDK1/CCNB1; [11]): > 250 nM
- IC50 (CDK4/CCND3; [15]): 25 to 250 nM
Compound: Cc1c(-c2nccc3cnc(Nc4ccc(NS(=O)(=O)c5ncccn5)cc4)cc23)ccc2c1cnn2CC(C)(C)O [Example 705, N-(4-((5-(1-(2-hydroxy-2-methylpropyl)-4-methyl-1H-indazol-5-yl)-2,6-naphthyridin-3-yl)amino)phenyl)pyrimidine-2-sulfonamide]

- IC50 (CDK6/CCND1; [5]): 25 to 250 nM
- IC50 (CDK2/CCNE1; [6]): < 25 nM
- IC50 (CDK1/CCNB1; [3]): > 250 nM
- IC50 (CDK4/CCND3; [4]): > 250 nM
Compound: Cc1c(-c2nccc3cnc(Nc4ccc(S(C)(=O)=O)cc4)cc23)ccc2c1cnn2CC(O)(C(F)(F)F)C(F)(F)F [Example 595, 1,1,1,3,3,3-hexafluoro-2-((4-methyl-5-(7-((4-(methylsulfonyl)phenyl)amino)-2,6-naphthyridin-1-yl)-1H-indazol-1-yl)methyl)propan-2-ol]

- IC50 (CDK6/CCND1; [1]): > 250 nM
- IC50 (CDK2/CCNE1; [6]): < 25 nM
- IC50 (CDK1/CCNB1; [7]): 25 to 250 nM
- IC50 (CDK4/CCND3; [4]): > 250 nM
Compound: CNS(=O)(=O)c1ccc(Nc2cc3c(C#Cc4cccnc4N)nccc3cn2)c(C)c1 [Example 449, 4-((5-((2-aminopyridin-3-yl)ethynyl)-2,6-naphthyridin-3-yl)amino)-N,3-dimethylbenzenesulfonamide]

- IC50 (CDK6/CCND1; [5]): 25 to 250 nM
- IC50 (CDK2/CCNE1; [6]): < 25 nM
- IC50 (CDK1/CCNB1; [3]): > 250 nM
- IC50 (CDK4/CCND3; [8]): 25 to 250 nM
Compound: CC(=O)NCCn1cc2c(C)c(-c3nccc4cnc(Nc5ccc(S(C)(=O)=O)cc5)cc34)ccc2n1 [Example 630, N-(2-(4-methyl-5-(7-((4-(methylsulfonyl)phenyl)amino)-2,6-naphthyridin-1-yl)-2H-indazol-2-yl)ethyl)acetamide]

- IC50 (CDK6/CCND1; [13]): 25 to 250 nM
- IC50 (CDK2/CCNE1; [14]): < 25 nM
- IC50 (CDK1/CCNB1; [11]): > 250 nM
- IC50 (CDK4/CCND3; [15]): 25 to 250 nM
Compound: Cc1c(-c2nccc3cnc(Nc4ccc5c(c4)CCCS5(=O)=O)cc23)ccc2c1cnn2CC(C)(C)O [Ex 914, 6-((5-(1-(2-hydroxy-2-methylpropyl)-4-methyl-1H-indazol-5-yl)-2,6-naphthyridin-3-yl)amino)thiochromane 1,1-dioxide]

- IC50 (CDK6/CCND1; [5]): 25 to 250 nM
- IC50 (CDK2/CCNE1; [6]): < 25 nM
- IC50 (CDK1/CCNB1; [3]): > 250 nM
- IC50 (CDK4/CCND3; [4]): > 250 nM
Compound: CC(CCO)N1CCc2cc(-c3nccc4cnc(Nc5ccc(S(C)(=O)=O)cc5)cc34)ccc2C1 (racemic) [Ex 619, 3-(6-(7-((4-(methylsulfonyl)phenyl)amino)-2,6-naphthyridin-1-yl)-3,4-dihydroisoquinolin-2(1H)-yl)butan-1-ol]

- IC50 (CDK6/CCND1; [1]): > 250 nM
- IC50 (CDK2/CCNE1; [6]): < 25 nM
- IC50 (CDK1/CCNB1; [3]): > 250 nM
- IC50 (CDK4/CCND3; [4]): > 250 nM
Compound: CCC1(CC)C(=O)Nc2cc(C#Cc3nccc4cnc(Nc5ccc(S(=N)(=O)C(C)C)cc5)cc34)ccc21 (single isomer, unassigned) [Ex 414, 3,3-diethyl-6-((7-((4-(propan-2-ylsulfonimidoyl)phenyl)amino)-2,6-naphthyridin-1-yl)ethynyl)indolin-2-one]

- IC50 (CDK6/CCND1; [1]): > 250 nM
- IC50 (CDK2/CCNE1; [2]): 25 to 250 nM
- IC50 (CDK1/CCNB1; [3]): > 250 nM
- IC50 (CDK4/CCND3; [4]): > 250 nM
Compound: Cc1cc(S(C)(=O)=O)ccc1Nc1cc2c(C#Cc3cccnc3N)nccc2cn1 [Ex 420, 5-((2-aminopyridin-3-yl)ethynyl)-N-(2-methyl-4-(methylsulfonyl)phenyl)-2,6-naphthyridin-3-amine]

- IC50 (CDK6/CCND1; [9]): > 250 nM
- IC50 (CDK2/CCNE1; [10]): 25 to 250 nM
- IC50 (CDK1/CCNB1; [11]): > 250 nM
- IC50 (CDK4/CCND3; [12]): > 250 nM
Compound: CC#Cc1nccc2cnc(Nc3ccc(S(=O)(=O)Nc4nccc(C)n4)cc3)cc12 [Ex 905, N-(4-methylpyrimidin-2-yl)-4-((5-(prop-1-yn-1-yl)-2,6-naphthyridin-3-yl)amino)benzenesulfonamide]

- IC50 (CDK6/CCND1; [1]): > 250 nM
- IC50 (CDK2/CCNE1; [6]): < 25 nM
- IC50 (CDK1/CCNB1; [3]): > 250 nM
- IC50 (CDK4/CCND3; [4]): > 250 nM
Compound: COc1cc(S(C)(=O)=O)ccc1Nc1cc2c(C#Cc3ccc4c(c3)NC(=O)C4(C)C)nccc2cn1 [Ex 440, 6-((7-((2-methoxy-4-(methylsulfonyl)phenyl)amino)-2,6-naphthyridin-1-yl)ethynyl)-3,3-dimethylindolin-2-one]

- IC50 (CDK6/CCND1; [1]): > 250 nM
- IC50 (CDK2/CCNE1; [2]): 25 to 250 nM
- IC50 (CDK1/CCNB1; [3]): > 250 nM
- IC50 (CDK4/CCND3; [4]): > 250 nM
Compound: COc1cncc(C#Cc2nccc3cnc(Nc4ccc(S(C)(=O)=O)cc4)cc23)n1 [Ex 585, 5-((6-methoxypyrazin-2-yl)ethynyl)-N-(4-(methylsulfonyl)phenyl)-2,6-naphthyridin-3-amine]

- IC50 (CDK6/CCND1; [13]): 25 to 250 nM
- IC50 (CDK2/CCNE1; [14]): < 25 nM
- IC50 (CDK1/CCNB1; 25-250 nM, read-out: CDK1/CCNB IC50, 25-250 nM): 25 to 250 nM
- IC50 (CDK4/CCND3; [15]): 25 to 250 nM
Compound: CNS(=O)(=O)c1ccc(Nc2cc3c(-c4ccc5c(cnn5CC(C)(C)O)c4C)nccc3cn2)cc1 [Ex 796, 4-((5-(1-(2-hydroxy-2-methylpropyl)-4-methyl-1H-indazol-5-yl)-2,6-naphthyridin-3-yl)amino)-N-methylbenzenesulfonamide]
